Measurements taken from patent publication US20230391841A1, “MACROCYCLIC PEPTIDES” (Herantis Pharma OYJ, priority 2019, published 2023).
Bridge positions count the residues as written; N and C are the ends. Peptide text beside a SMILES is read from it.

Experiments:
[1] = tested on: dopaminergic TH-positive neurons injured with MPP+; test: Neuroprotective effect on dopaminergic TH-positive neurons injured with MPP+ (primary mesencephalic culture); format: cell-based, rat; details: MPP+ injured TH-positive neurons
Description: Neuroprotective effects of compounds 1-26 (SEQ ID NO: 1-26) were tested in an in vitro model in which primary cultures of rat embryonic mesencephalic neurons were stressed with MPP+ , the active metabolite of neurotoxin 1-methyl-4-phenyl-1,2,3,6-tetrahydropyridine (MPTP). MPP+ kills dopaminergic (TH-positive) neurons via a variety of toxic mechanisms, including mitochondrial dysfunction, generation of peroxynitrite, oxidative stress, ER stress and induction of apoptosis.
Culture of mesencephalic neurons. Rat dopaminergic neurons were cultured as described by Visanji et al., 2008. Briefly, the midbrains obtained from 15-day-old rat embryos (Janvier, France) were dissected, and the ventral portion of the mesencephalic flexure, a region of the developing brain rich in dopaminergic neurons, was used for the cell preparations. The midbrain cells were dissociated by trypsinization for 20 min at 37° C. (solution at a final concentration of 0.05% trypsin and 0.02% EDTA). The reaction was stopped by adding Dulbecco's modified Eagle's medium (DMEM) containing DNAase I grade II (0.5 mg/mL) and 10% of fetal calf serum (FCS). Cells were then mechanically dissociated by 3 passages through a 10 ml pipette. Cells were then centrifuged at 180×g for 10 min at +4° C. on a layer of BSA (3.5%) in L15 medium. The cell pellets were re-suspended in a defined culture serum-free medium consisting of Neurobasal (Invitrogen) supplemented with B27 (2%), L-glutamine (2 mM) and 2% of PS solution and 1Ong/ml of Brain-derived neurotrophic factor (BDNF) and 1 ng/mL of Glial-Derived Neurotrophic Factor (GDNF). Viable cells were counted in a Neubauer cytometer using the trypan blue exclusion test. The cells were seeded at a density of 40 000 cells/well in 96 well-plates (pre-coated with poly-L-lysine) and maintained in a humidified incubator at 37° C. in 5% CO2/95% air atmosphere. Half of the medium was changed every 2 days with fresh medium. On 96-wells plates, only 60 wells are used. To avoid any edge effect, the first and last lines and columns were not used for culture and were filled with sterile water.
CDNF as well as linear and macrocyclic compounds […] (SEQ ID NOs: 1-26) were tested. On day 6 of culture, the compounds were dissolved in culture medium and then pre-is incubated with mesencephalic neurons for 4 hours before the MPP+ application. Four hours after the preincubation of the compounds, MPP+ was added to a final concentration of 4 pM, diluted in control medium still in presence of compounds for 48 h.
48 h after intoxication, the cells were fixed by a solution of 4% paraformaldehyde in PBS, pH 7.3 for 20 min at room temperature. The cells were washed twice in PBS, and then permeabilized and non-specific sites were blocked with a solution of PBS containing 0.1% of saponin and 1% FCS for 15 min at room temperature. Next, the cells were incubated with (a) a monoclonal antibody anti-Tyrosine Hydroxylase (TH) produced in mouse at dilution of 1:10000 and with (b) a polyclonal antibody anti-alpha-synuclein (α-syn) antibody produced in rabbit at dilution of 1:400 in PBS containing 1% FCS, 0.1% saponin, for 2 h at room temperature.
48 h after intoxication, the cell culture supernatant was removed, and the cells fixed by a solution of 4% paraformaldehyde in PBS, pH 7.3 for 20 min at room temperature. The cells were washed twice in PBS, and then permeabilized and non-specific sites were blocked with a solution of PBS containing 0.1% of saponin and 1% FCS for 15 min at room temperature. Then, the cells were incubated with a) a monoclonal Anti-Tyrosine Hydroxylase (TH) antibody produced in mouse at dilution of 1:10000 in PBS containing 1% FCS, 0.1% saponin, for 2 hours at room temperature, and b) a polyclonal anti-postsynaptic density protein-95 (PSD-95) antibody produced in rabbit at dilution of 1:200 in PBS containing 1% FCS, 0.1% saponin, for 2 h at room temperature. This antibody stains specifically synapses. […]

[2] = In vitro metabolic stability in rat plasma; format: in vitro ADME; details: 1 μM, 37° C., up to 120 min
Description: The linear and macrocyclic compounds 1-14 and 23-26 (SEQ ID NOs: 1-14 and 23-26) were incubated in concentration 1 μM with rat plasma (Sprague-Dawley, male; 400 μl) for different time points (0, 20, 40, 60 or 120 min) at 37° C. The incubation was terminated by acetonitrile. The collected samples were centrifuged for 20 min at 2272×g and analyzed. io Stock solutions were prepared using 50% DMSO, and the compounds were spiked 1/100 to incubation to have final DMSO content of 0.5%. The samples were analyzed by UHPLC/PDA with high resolution mass spectrometry (QE-Orbitrap-MS on DDI mode) to monitor disappearance of the compound. Enalapril 1 μM was used as a disappearance rate control. For analysis of compounds 9, 10, 13 and 14 stock solutions were prepared with PBS, and samples were analyzed by UHPLC-ToF mass spectrometry. The analytical method was optimized by using the parent compounds for optimum chromatographic properties (peak shape and retention) and mass spectrometric ionization. The ion chromatograms were extracted from the total ion chromatograms using calculated monoisotopic accurate masses with 5 mDa window. Disappearance was based on LC/MS peak areas, marking 0 min as 100%.
The first-order rate constants k (min-1) of the metabolism were obtained from the slope of time versus logarithm (% of remaining compound) plot using Excel software. The in vitro half-life (t1/2) of study compound is defined as: t1/2=In2/k. Calculated half-life is based on compound disappearance from rat plasma.

[3] = In vivo pharmacokinetics after intravenous administration to rats; design: species or system male Sprague-Dawley rats; details: rat, 5 mg/kg intravenous bolus, male Sprague-Dawley rats
Description: The clearance and elimination of peptides can be mediated by multiple processes in vivo, including metabolism and renal elimination.
Test compounds were intravenously (i.v.) administered to male Spraque-Dawley rats (about is six weeks old, n=3 per compound) at 5 mg/kg. Blood samples were collected from jugular vein through implanted in-dwelling catheters (250 pl blood) into labelled polypropylene tubes containing anticoagulant (heparin) at 2 min, 5 min,15 min, 30 min, 1 h, 2 h and 4 h after compound administration and held on wet ice for a maximum of 30 minutes. The blood samples were centrifuged for plasma separation (4 °C, 21100 G, 5 min). Tolbutamide 500ng/ml with 10% TFA in acetonitrile or in MeCN was used as an internal standard solution.
The standard samples were prepared into rat plasma by spiking the matrix into concentrations 2-10 000 ng/ml of the analyte, respectively, and otherwise treated as the samples. To 50 pl aliquots of sample plasma was added 200 pl of internal standard. Samples were mixed (150 rpm, 15 min) and centrifugated (3000 rpm, 15min). The analytical method was optimized for reaction monitoring chromatographic (peak shape & retention) shifts and mass spectrometric properties (ionization efficiency, MS/MS detection). Supernatants were analyzed by UHPLC-TOF mass spectrometry using electrospray ionization.

CC[C@H](C)[C@@H]1NC(=O)[C@H](CO)NC(=O)[C@H](CCCCN)NC(=O)[C@H](CCC(=O)O)NC(=O)[C@H](C)NC(=O)[C@@H]2CSSC[C@H](NC(=O)[C@H]([C@@H](C)O)NC(=O)[C@H](CCC(=O)O)NC(=O)CNC(=O)[C@H](Cc3c[nH]c4ccccc34)NC(=O)[C@H](CC(=O)O)NC(=O)[C@H](CC(=O)O)NC(=O)[C@H](CC(C)C)NC1=O)C(=O)N[C@@H](CCCCN)C(=O)NCC(=O)N2 [Compound 10, KSILDDWGETCKGCAE] (cyclo(AEKSILDDWGETCKGC); disulfide 13-16)
potency of macrocyclic peptide versus its linear counterpart [1]: comparable
stability in rat plasma as compared to linear counterpart [2]: improved stability
AUC(0-inf) ([3]; in vivo): 2140 ng·h/mL
MRT ([3]; in vivo): 1.2 min
Vd ([3]; in vivo): 0.05 L/kg
half-life ([3]; in vivo): 3.6 min
clearance ([3]; plasma, read-out: CI): 39.9 mL/min/kg
